Counter-ions that a name gives are not always drawn.
System: Ls-174t human colon cancer
Assay: Antitumor therapeutic efficacy test in vivo
Set-up: species or system BALB/cA-nude mice
Description: [Antitumor Therapeutic Efficacy Test In Vivo]
Preparation methods: The drug was diluted with saline solution to required concentration.
Experimental animals: BALB/cA-nude mice, 6-7 weeks, ♀, purchased from Shanghai Slac Laboratory Animal Co., LTD. […] Environment: SPF level.
After tumors grew to the 150-300 mm^3, mice were randomly divided into teams (d0). The volume of tumors and the weight of the mice were measured and recorded for 2-3 times per week. The tumor volume (V) was calculated by the follow equation: V=½×a×b^2 wherein a, b represent length and width respectively.

Compound: CCc1c2c(nc3ccc(OC(=O)N4CCC(N5CCCCC5)CC4)cc13)-c1cc3c(c(=O)n1C2)COC(=O)[C@]3(O)CC [CPT-11, Irinotecan hydrochloride]
- growth of Ls-174t human colon cancer in nude mice: inhibited the growth of Ls-174t human colon cancer in nude mice significantly
- % T/C D12 (10 mg/kg, IV, D0, 3): 45%
- Tumor inhibition rate (%) D12 (10 mg/kg, IV, D0, 3): 55%
- Partial regression (10 mg/kg, IV, D0, 3, number of animals): 0

— patent US10022365B2 (Jiangsu Hengrui Medicine Co., Ltd., priority 2009, dated 2018)
